Assay results as given in publication PMC11201061, “Mechanistic Study of Antimicrobial Effectiveness of Cyclic Amphipathic Peptide [R4W4] against Methicillin-Resistant Staphylococcus aureus Clinical Isolates” (Antibiotics, 2024).
In brackets after ≈: the same amount, converted by molar mass. Values belong to the molecule of their own block, whether it stands above or below them.

Assays:
[1] = tested on: MRSA USA300; test: Checkered board synergy assay with gentamicin; format: cell-based, Staphylococcus aureus
Description: (§1) An amount of 100 µL of [R4W4] peptide test solution at a final concentration of 512 µg/mL was added to each well A-G column 1 in plate A using a multi-channel pipette. A 50 µL MH Broth was added to micro-plate well A-G columns 2–9. Using a multi-channel pipette, a two-fold serial dilution was performed by removing 50 µL solution from column 1 and was added to column 2 with thorough mixing. The micro-pipette was discarded after each transfer. The last portion after column 9 was discarded. In another microplate, 100 µL MHB was added to well B-G columns 1–11 using a multi-channel pipette. A 200 µL gentamicin test solution 512 µg/mL was added to row A, columns 1–11. A two-fold serial dilution was performed by removing 100 µL from rows A to B. The last portion was discarded. Using eight multi-channel pipettes, 50 µL of gentamicin test solution was transferred in the ordinate column A-G row 1 to the first microplate. The plate was incubated at 37 °C for 18–24 h. The fractional inhibitory concentration (FIC) of the antibacterial agents and the fractional inhibitory concentration index (FICI) of the two antibacterial agents were determined to evaluate the synergistic interaction. The FICI was interpreted as follows: FICI ≤ 0.5, synergy; 0.5 < FICI ≤ 1, partial synergy; 1 ≤ FICI < 4, additive effect or indifference; 4 ≤ FICI antagonism and calculated from the mean values from multiple experiments.

[2] = tested on: E. coli 25922; test: Checkered board synergy assay with gentamicin; format: cell-based, Escherichia coli
Description: as §1

[3] = tested on: MRSA USA300; test: microbe, parasite or virus in culture
Description: MRSA USA300 bacteria from −80 °C freezer stock were cultured on an LB agar plate overnight. One bacteria colony was added to a 6 mL fresh MHB with constant shaking at 200 rpm at 37 °C. The bacteria were transferred daily by inoculating 10 μL of stationary-phase culture into […] of MHB in a 1 mL cap-clipped Eppendorf tube. Then, 20 μL of bacteria aliquot was added to […] of MHB broth, with or without [R4W4], at a final concentration of the MIC overnight in an […] at 37 °C for five transfers. […] […] Experiments were performed in triplicates. Every time we increased the concentration of [R4W4], a sample of the induction generation was inoculated into 20% (vol/vol) glycerol and stored at −70 °C. The final MIC values of [R4W4], vancomycin, and levofloxacin were determined by modified microbroth dilution assay.

[4] = tested on: MRSA USA300; test: microbe, parasite or virus in culture; conditions: MRSA USA300, overnight 37 °C, duplicate
Description: The interaction of [R4W4], melittin, and vancomycin with LTA in the presence of MRSA was determined using a microbroth dilution assay. Two-fold serial dilution was used to achieve a 100 μL final concentration of the antibacterial agents in a 96 microplate well. A 360 μL S. aureus LTA (Sigma Aldrich stock 5 mg/mL) was added to 17.64 mL MHB containing MRSA (5 x 10^5 CFU/mL) to achieve the final concentration of S. aureus LTA 100 μg/mL. Then, 100 μL aliquots of MHB (MRSA (5 × 10^5 CFU/mL) and 100 μg/mL S. aureus LTA) were added to the 96 microtiter wells containing the antibacterial agents. The microplate was incubated overnight at 37 °C to obtain the MICs. Controls were bacteria grown in the presence of LTA alone and in MHB alone.

- MIC(B+A) (gentamicin in combination with [R4W4]) ([1]; MRSA USA300, checkered board): 0.05 µg/mL
- MICB (gentamicin alone) ([1]; MRSA USA300, checkered board): 0.09 µg/mL
- reduction in MIC value in combination ([1]; MRSA, [R4W4] + gentamicin combination versus alone): ~ 2 fold
- MIC(B+A) (gentamicin in combination with [R4W4]) ([2]; E. coli 25922, checkered board): 0.19 µg/mL
- MICB (gentamicin alone) ([2]; E. coli 25922, checkered board): 0.75 µg/mL
- reduction in MIC value in combination ([2]; E. coli, [R4W4] + gentamicin combination versus alone): approximately 4 fold
SMILES: CNC(C)C1CCC(N)C(OC2C(N)CC(N)C(OC3OCC(C)(O)C(NC)C3O)C2O)O1 (stereo not shown) [Gentamicin, gentamicin, reference compound]
- FICB ([1]; MRSA USA300, fractional inhibitory concentration of gentamicin): 0.56
- FICB ([2]; E. coli 25922, fractional inhibitory concentration of gentamicin): 0.25

SMILES: C[C@H]1COc2c(N3CCN(C)CC3)c(F)cc3c(=O)c(C(=O)O)cn1c23 [levofloxacin, Levofloxacin]
- MIC against index isolate (no serial passage) ([3]; MRSA USA300 index strain, MIC in duplicate): 1 µg/mL (≈ 2.77 µM)
- change in MIC after serial passage ([3]; MRSA USA300 passaged versus index strain): 2 folds
- MIC ([3]; Staphylococcus aureus, MRSA|USA300, read-out: MIC against serial passaged [R4W4]-resistant isolate): 2 µg/mL (≈ 5.53 µM)

SMILES: CC[C@H](C)[C@H](NC(=O)CN)C(=O)NCC(=O)N[C@@H](C)C(=O)N[C@H](C(=O)N[C@@H](CC(C)C)C(=O)N[C@@H](CCCCN)C(=O)N[C@H](C(=O)N[C@@H](CC(C)C)C(=O)N[C@H](C(=O)N[C@H](C(=O)NCC(=O)N[C@@H](CC(C)C)C(=O)N1CCC[C@H]1C(=O)N[C@@H](C)C(=O)N[C@@H](CC(C)C)C(=O)N[C@H](C(=O)N[C@@H](CO)C(=O)N[C@@H](Cc1c[nH]c2ccccc12)C(=O)N[C@H](C(=O)N[C@@H](CCCCN)C(=O)N[C@@H](CCCNC(=N)N)C(=O)N[C@@H](CCCCN)C(=O)N[C@@H](CCCNC(=N)N)C(=O)N[C@@H](CCC(N)=O)C(=O)N[C@@H](CCC(N)=O)C(N)=O)[C@@H](C)CC)[C@@H](C)CC)[C@@H](C)O)[C@@H](C)O)C(C)C)C(C)C [melittin, reference compound]
- MIC in the presence of LTA ([4]; 100 μg/mL S. aureus LTA in MHB): 32 µg/mL
- MIC in the absence of LTA ([4]; MHB): 8 µg/mL
